# Source: patent US6608082B1, “Treatment of erectile dysfunction using isoquinoline compound melanocortin receptor ligands” (Lion Bioscience AG, priority 1998, dated 2003)
# pIC50: −log10 of the molar value. Read-outs that look alike come from different tables or passages of the source.
# Experiments:
# MCR-4 = target: T1, MCR-4 (Homo sapiens, UniProt P32245); test: Melanocortin receptor binding assay, competition with 125I-HP 467, HEK 293 cells expressing hMCR-4; conditions: inhibition of binding of 125I-HP 467, HEK 293 cells expressing MCR-4, TRG 2414 library; for pIC50: read-out: MC-4 IC50
# T1 construct: expressed in transfected cells; host or cells: HEK 293
# Experimental: All cell culture media and reagents were obtained from GibcoBRL (Gaithersburg Md.), except for COSMIC CALF SERUM (HyClone; Logan Utah).
# Cells were suspended in PBS, 10% COSMIC CALF SERUM and 1 mM CaCl2. Cell suspensions were prepared at a density of 2×10^4 cells/ml for HEK 293 cells expressing hMCR-3, hMCR-4 or hMCR-5, and 1×10^5 cells/ml for HEK 293 cells expressing hMCR-1. Suspensions were placed in a water bath and allowed to warm to 37° C. for 1 hr.
# Binding assays were performed in a total volume of 250 μl for HEK 293 cells. […] To each tube was added 4×10^3 HEK 293 cells expressing hMCR-3, hMCR-4 or hMCR-5, or 2×10^4 cells expressing hMCR-1. Assays were incubated for 2.5 hr at 37° C.
# GF/B filter plates were prepared by soaking for at least one hour in 5 mg/ml BSA and 10 mM CaCl2. Assays were filtered using a Brandel 96-well cell harvester (Brandel Inc.; Gaithersburg, Md.). The filters were washed four times with cold 50 mM Tris, pH 7.4, the filter plates were dehydrated for 2 hr and 35 μl of MICROSCINT was added to each well. Filter plates were counted using a Packard Topcount (Packard Instrument Co.) and data analyzed using GraphPad PRISM v2.0 (GraphPad Software Inc.; San Diego Calif.) and Microsoft EXCEL v5.0a (Microsoft Corp.; Redmond Wash.).
# To assay isoquinoline compounds, binding assays were performed in duplicate in a 96 well format. […] A 0.2 ml aliquot of suspended cells was added to each well to give the cell numbers indicate above, and the cells were incubated at 37° C. for 2.5 hr. Cells were harvested on GF/B filter plates as described above and counted.
# MCR-1 = target: T2, MCR-1 (Homo sapiens, UniProt Q01726); test: Melanocortin receptor binding assay, competition with 125I-HP 467, HEK 293 cells expressing hMCR-1; conditions: for % Disp. of 125I-HP 467 (first of duplicate) / % Disp. of 125I-HP 467 (second of duplicate): 10 μM isoquinoline compound; for % Disp. of 125I-HP 467 (first of duplicate): HEK 293 cells expressing MCR-1, duplicate 1; for % Disp. of 125I-HP 467 (second of duplicate): HEK 293 cells expressing MCR-1, duplicate 2; for % Disp. MC-1 10 μM: displacement of 125I-HP 467 at 10 μM isoquinoline compound; for pIC50: read-out: MC-1 IC50
# T2 construct: expressed in transfected cells; host or cells: HEK 293
# Procedure, shortened: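 Intact-cell competition binding, 2.5 hr at 37 °C, in PBS/10% calf serum/1 mM CaCl2; hMCR-4 cells at 4×10^3 per tube, hMCR-1 cells at 2×10^4 per tube. Filtration on BSA/CaCl2-soaked GF/B, cold 50 mM Tris pH 7.4 washes, scintillation count.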
# [1] = competition with 125I-HP 467, HEK 293 cells expressing MCR-1
# [2] = inhibition of binding of 125I-HP 467, HEK 293 cells expressing MCR-1
# T2 sequence (Q01726 whole entry): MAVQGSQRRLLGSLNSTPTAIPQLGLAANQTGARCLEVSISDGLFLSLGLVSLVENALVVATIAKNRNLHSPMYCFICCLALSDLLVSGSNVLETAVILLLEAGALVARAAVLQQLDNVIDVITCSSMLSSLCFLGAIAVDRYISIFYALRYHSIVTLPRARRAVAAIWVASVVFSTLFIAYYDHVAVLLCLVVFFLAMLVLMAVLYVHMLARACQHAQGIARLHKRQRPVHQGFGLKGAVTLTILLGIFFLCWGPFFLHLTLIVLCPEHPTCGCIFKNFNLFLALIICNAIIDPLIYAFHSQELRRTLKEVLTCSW
# T1 sequence (P32245 whole entry): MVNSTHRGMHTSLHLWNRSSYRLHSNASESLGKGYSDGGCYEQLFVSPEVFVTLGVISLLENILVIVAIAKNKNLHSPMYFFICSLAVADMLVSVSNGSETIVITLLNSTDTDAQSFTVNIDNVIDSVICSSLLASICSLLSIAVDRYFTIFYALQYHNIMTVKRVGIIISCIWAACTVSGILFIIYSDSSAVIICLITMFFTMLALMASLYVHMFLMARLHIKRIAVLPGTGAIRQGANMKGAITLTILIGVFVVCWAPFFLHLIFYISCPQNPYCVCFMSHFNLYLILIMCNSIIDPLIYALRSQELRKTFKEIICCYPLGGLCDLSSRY
SMILES,% Disp. MC-1 10 μM (MCR-1; first of duplicate),% Disp. MC-1 10 μM (MCR-1; second of duplicate),also measured
CCOc1ccccc1CNCC1c2ccccc2CN(CCCCC(CN)NCC(C)c2ccc(CC(C)C)cc2)C1c1ccc(Cl)cc1Cl (stereo not shown) [TRG 2414-8],,,pIC50 (MCR-4): 4.86
CCOc1ccccc1CNCC1c2ccccc2CN(CCCCC(CN)NCc2ccccc2)C1c1ccc(Cl)cc1Cl (stereo not shown) [TRG 2414-7],,,pIC50 (MCR-4): 5.34
CCOc1ccccc1CNCC1c2ccccc2CN(CCCCC(N)CN)C1c1ccc(Cl)cc1Cl (stereo not shown) [TRG 2414-5],,,pIC50 (MCR-4): 6.32
NCC(N)CCCCN1Cc2ccccc2C(CNCc2ccccc2C(F)(F)F)C1c1ccc(Cl)cc1Cl (stereo not shown) [TRG 2414-1],,,pIC50 (MCR-4): 5.12
CC(C)Cc1ccc(C(C)CNC(CN)CCCCN2Cc3ccccc3C(CNCc3ccccc3C(F)(F)F)C2c2ccc(Cl)cc2Cl)cc1 (stereo not shown) [TRG 2414-4],,,MC-4 IC50 (MCR-4): no fit
CNC(CN)CCCCN1Cc2ccccc2C(CNC2CCCCC2)C1c1ccc(OCCCN(C)C)cc1 (stereo not shown) [TRG 2405-234],,,% Disp. of 125I-HP 467 (first of duplicate) (MCR-1): 52.9%; % Disp. of 125I-HP 467 (second of duplicate) (MCR-1): 37.7%
CNC(CN)CCCCN1Cc2ccccc2C(CNC2CCCCC2)C1c1cccc(F)c1F (stereo not shown) [TRG 2405-189],,,% Disp. of 125I-HP 467 (first of duplicate) (MCR-1): 45%; % Disp. of 125I-HP 467 (second of duplicate) (MCR-1): 54.8%
CNC(CN)CN1Cc2ccccc2C(CNC2CCCCC2)C1c1cc(OC)cc(OC)c1 (stereo not shown) [TRG 2405-121],35.3%,38.7%,
CCNc1ccc(C2C(CNC3CCCCC3)c3ccccc3CN2CCCCC(CN)NCC)cc1 (stereo not shown) [TRG 2411-49],,,pIC50 (MCR-1; [1]): 6.66
CCCCOc1ccc(C2C(CNCCc3ccccc3)c3ccccc3CN2CCCCC(CN)NC)cc1 (stereo not shown) [TRG 2412-10],,,pIC50 (MCR-1; [2]): 6.51
CCNc1ccc(C2C(CN)c3ccccc3CN2CCCCC(CN)NCCc2ccc3ccccc3c2)cc1 (stereo not shown) [TRG 2411-69],,,pIC50 (MCR-1; [1]): 6.43
CNC(CNC(CN)CCCCN1Cc2ccccc2C(CNC2CCCCC2)C1c1ccc(-c2ccccc2)cc1)Cc1ccccc1 (stereo not shown) [TRG 2411-17],,,pIC50 (MCR-1; [1]): 6.41
COCCNC(CN)CCCCN1Cc2ccccc2C(CNC2CCCCC2)C1c1ccc(-c2ccccc2)cc1 (stereo not shown) [TRG 2411-19],,,pIC50 (MCR-1; [1]): 6.31
CNC(CN)CCCCN1Cc2ccccc2C(CNC2CCCCC2)C1c1ccc(SC)cc1 (stereo not shown) [TRG 2405-237],,,% Disp. of 125I-HP 467 (first of duplicate) (MCR-1): 62.2%; % Disp. of 125I-HP 467 (second of duplicate) (MCR-1): 47.8%
CNC(CN)CN1Cc2ccccc2C(CNC2CCCCC2)C1c1ccc(-c2ccccc2)cc1 (stereo not shown) [TRG 2405-151],61.5%,57.6%,
NCCNC(CN)CCCN1Cc2ccccc2C(CNCCc2ccccc2)C1c1ccc(-c2ccccc2)cc1 (stereo not shown) [TRG 2411-118],,,pIC50 (MCR-1; [1]): 6.46
CCNc1ccc(C2C(CN)c3ccccc3CN2CCCC(CN)NCCc2ccc3ccccc3c2)cc1 (mixture of isomers) [TRG 2411-185],,,pIC50 (MCR-1; [2]): 7.00

SMILES,% Disp. MC-1 10 μM (MCR-1; first of duplicate),% Disp. MC-1 10 μM (MCR-1; second of duplicate),also measured
CCCOc1ccc(C2C(CNCCc3ccccc3)c3ccccc3CN2CCCC(CN)NC)cc1 (stereo not shown) [TRG 2412-22],,,pIC50 (MCR-1; [2]): 6.70
NCC(CCCN1Cc2ccccc2C(CNCCc2ccccc2)C1c1ccc(-c2ccccc2)cc1)NCC1CCCCC1 (stereo not shown) [TRG 2411-125],,,pIC50 (MCR-1; [1]): 6.09
CCNc1ccc(C2C(CN)c3ccccc3CN2CCCC[C@@H](CN)NCCc2ccc(Br)cc2)cc1 (stereo partly shown) [TRG 2411-64],,,pIC50 (MCR-1; [1]): 6.32
CNC(CN)CN1Cc2ccccc2C(CNC2CCCCC2)C1c1ccc(OC)c2ccccc12 (stereo not shown) [TRG 2405-158],45.6%,45.8%,
CNC(CN)CCCCN1Cc2ccccc2C(CNC2CCCCC2)C1c1cccc(Oc2ccc(Cl)c(Cl)c2)c1 (mixture of isomers) [TRG 2405-213],,,% Disp. of 125I-HP 467 (first of duplicate) (MCR-1): 80%; % Disp. of 125I-HP 467 (second of duplicate) (MCR-1): 78.1%
CNC(CN)CCCCN1Cc2ccccc2C(CNC2CCCCC2)C1c1ccc(C)s1 (stereo not shown) [TRG 2405-258],,,% Disp. of 125I-HP 467 (first of duplicate) (MCR-1): 80.7%; % Disp. of 125I-HP 467 (second of duplicate) (MCR-1): 81.9%
CNC(C)CNC(CN)CCCN1Cc2ccccc2C(CNC2CCCCC2)C1c1ccc(-c2ccccc2)cc1 (stereo not shown) [TRG 2411-128],,,pIC50 (MCR-1; [1]): 5.80
CNC(CN)CCCCN1Cc2ccccc2C(CNC2CCCCC2)C1c1ccc(F)c(F)c1F (stereo not shown) [TRG 2405-186],,,% Disp. of 125I-HP 467 (first of duplicate) (MCR-1): 62.7%; % Disp. of 125I-HP 467 (second of duplicate) (MCR-1): 52.7%
CNC(CN)CCCCN1Cc2ccccc2C(CNC2CCCCC2)C1c1cc(Cl)cc(Cl)c1Cl (mixture of isomers) [TRG 2405-187],,,% Disp. of 125I-HP 467 (first of duplicate) (MCR-1): 64.6%; % Disp. of 125I-HP 467 (second of duplicate) (MCR-1): 59.3%
CCCOc1ccc(C2C(CNCCc3ccccc3)c3ccccc3CN2CCCCC(CN)NCCc2ccccc2)cc1 (stereo not shown) [TRG 2412-8],,,pIC50 (MCR-1; [2]): 6.08
CCCCCNc1ccc(C2C(CNCCc3ccccc3)c3ccccc3CN2CCCC(CN)NCc2ccccc2)cc1 (stereo not shown) [TRG 2412-18],,,pIC50 (MCR-1; [2]): 6.72
CNC(CN)CCCCN1Cc2ccccc2C(CNC2CCCCC2)C1c1ccccc1Br (stereo not shown) [TRG 2405-192],,,% Disp. of 125I-HP 467 (first of duplicate) (MCR-1): 73.8%; % Disp. of 125I-HP 467 (second of duplicate) (MCR-1): 50.9%
CCCCNc1ccc(C2C(CNC3CCCCC3)c3ccccc3CN2CCCC(CN)NCC)cc1 (stereo not shown) [TRG 2411-204],,,pIC50 (MCR-1; [2]): 6.82
CCCCNc1ccc(C2C(CN)c3ccccc3CN2CCCC(CN)NCCc2ccc3ccccc3c2)cc1 (stereo not shown) [TRG 2409-227],,,pIC50 (MCR-1; [1]): 6.77
CNC(CNC(CN)CCCN1Cc2ccccc2C(CNCCc2ccccc2)C1c1ccc(-c2ccccc2)cc1)Cc1ccccc1 (stereo not shown) [TRG 2411-121],,,pIC50 (MCR-1; [1]): 5.97
CNC(CN)CCCCN1Cc2ccccc2C(CNC2CCCCC2)C1c1ccc(OC)c2ccccc12 (mixture of isomers) [TRG 2405-248],,,% Disp. of 125I-HP 467 (first of duplicate) (MCR-1): 56.5%; % Disp. of 125I-HP 467 (second of duplicate) (MCR-1): 67.9%
CCCCNc1ccc(C2C(CNC3CCCCC3)c3ccccc3CN2CCCC(CN)NCCc2ccccc2)cc1 (stereo not shown) [TRG 2411-207],,,pIC50 (MCR-1; [2]): 6.72

# Now from value to molecule, other results behind:
% Disp. MC-1 10 μM (MCR-1; first of duplicate),% Disp. MC-1 10 μM (MCR-1; second of duplicate),SMILES,also measured
54%,51.3%,CC(C)c1ccc(C2C(CNC3CCCCC3)c3ccccc3CN2CCN)cc1 (stereo not shown) [TRG 2405-67],
52.1%,43.8%,NCCN1Cc2ccccc2C(CNC2CCCCC2)C1c1ccc(F)c(F)c1 (stereo not shown) [TRG 2405-27],
40.6%,31.9%,COc1cccc(C2C(CNC3CCCCC3)c3ccccc3CN2CCN)c1 (stereo not shown) [TRG 2405-45],
34.2%,29.6%,NCCN1Cc2ccccc2C(CNC2CCCCC2)C1c1c(F)cccc1Cl (stereo not shown) [TRG 2405-14],
21.5%,31.2%,NCCN1Cc2ccccc2C(CNC2CCCCC2)C1c1ccc(Br)o1 (stereo not shown) [TRG 2405-89],
17.4%,42.6%,CSc1ccc(C2C(CNC3CCCCC3)c3ccccc3CN2CCN)cc1 (stereo not shown) [TRG 2405-57],
40.9%,55.7%,CNC(CN)CN1Cc2ccccc2C(CNC2CCCCC2)C1c1ccc(F)c(F)c1 (stereo not shown) [TRG 2405-117],
10.1%,38.3%,Cc1cc(C2C(CNC3CCCCC3)c3ccccc3CN2CCN)cc(C)c1O (stereo not shown) [TRG 2405-32],
54.6%,55%,NCCN1Cc2ccccc2C(CNC2CCCCC2)C1c1cccc(C(F)(F)F)c1 (stereo not shown) [TRG 2405-35],
50.3%,54.8%,NCCN1Cc2ccccc2C(CNC2CCCCC2)C1c1cc(Cl)cc(Cl)c1Cl (stereo not shown) [TRG 2405-7],
51.8%,53.6%,NCCN1Cc2ccccc2C(CNC2CCCCC2)C1c1ccc(F)c(Br)c1 (stereo not shown) [TRG 2405-36],
43%,47.8%,NCCN1Cc2ccccc2C(CNC2CCCCC2)C1c1cccs1 (stereo not shown) [TRG 2405-23],
42.9%,40.8%,NCCN1Cc2ccccc2C(CNC2CCCCC2)C1c1ccccc1O (stereo not shown) [TRG 2405-2],
22.4%,35.5%,COc1ccc(C2C(CNC3CCCCC3)c3ccccc3CN2CCN)cc1F (stereo not shown) [TRG 2405-40],
28.2%,40%,NCCN1Cc2ccccc2C(CNC2CCCCC2)C1c1ccc([N+](=O)[O-])cc1 (stereo not shown) [TRG 2405-71],
59.6%,64.6%,NCCN1Cc2ccccc2C(CNC2CCCCC2)C1c1ccc(Cl)c(Cl)c1 (stereo not shown) [TRG 2405-26],
52.3%,55.6%,CNC(CN)CN1Cc2ccccc2C(CNC2CCCCC2)C1c1ccc(F)cc1 (stereo not shown) [TRG 2405-155],
54.7%,61.9%,NCCN1Cc2ccccc2C(CNC2CCCCC2)C1c1ccc(-c2ccccc2)cc1 (stereo not shown) [TRG 2405-61],
